Earlier results on one compound are cited in patent US20060177438A1, “Methods of altering absorption of hydrophobic compounds” (New England Medical Center, priority 2005, published 2006).

For the series the following is noted: cited from earlier work.

As for `CC(C)CCC[C@@H](C)[C@H]1CC[C@H]2[C@@H]3CC=C4C[C@@H](O)CC[C@]4(C)[C@H]3CC[C@]12C` [cholesterol], the “dietary cholesterol absorbed by the human intestine” value was 34-57%.
